Values joined by “and” are separate entries in the source; they are usually repeats but may differ in a detail not shown here. Equal entries are not always repeated.
Tested on: 276233-004-R-J1-PDC complex spheroid viability
Experiment: Anticancer human tumor 276233-004-R-J1-PDC patient-derived colon adenocarcinoma cell line growth inhibition [GQUAD]
Details: for viability, T/C: stronger effect = lower value
From the text: DNA G-quadruplex Stabilizer Agents in Combinations in Complex Spheroids
A high-throughput screen of multi-cell type tumor spheroids was designed to identify active combinations of DNA G-quadruplex stabilizer agents and targeted small molecules. Complex spheroids include a stromal component modeled by human endothelial cells (HUVEC) and fibroblasts modeled by human mesenchymal stem cells (MSCs). The concentration ranges selected for each drug and investigational agent were based upon clinically achievable concentrations if the clinical Cmax of the agent was known.
Compounds. The drugs and investigational agents: pidnarulex (CX-5461; NSC782164), APTO-253 (NSC789042), BRACO-19 (NSC847499), peposertib (NSC802822), ceralasertib (NSC780249), elimusertib (NSC800525), camonsertib (NSC841442), AZD-1390 (NSC803789), olaparib (NSC753686), talazoparib (NSC767125), ART-558 (NSC835418), sotorasib (NSC818433), MRTX-1133 (NSC836407), SN-38 (NSC673596), topotecan (NSC609699), etoposide (NSC141540), doxorubicin (NSC123127), gemcitabine (NSC613327), 5-fluorouracil (NSC19893), paclitaxel (NSC125973), vemurafenib (NSC761431), panobinostat (NSC761190), R-306465 (JNJ-16241199; NSC773264), adavosertib (NSC754352), TP-3654 (NSC805149), carboplatin (NSC241240), KSQ-4279 (NSC840948), and staurosporine (NSC755774) were obtained from the National Cancer Institute (NCI) Developmental Therapeutics Program Chemical Repository (34). The FDA-approved anticancer drug set is available from the NCI Developmental Therapeutics Program. […] The stock solutions were prepared in dimethyl sulfoxide (DMSO, Sigma-Aldrich, St. Louis, MO, cat. D2650) at 800-fold the tested concentration and stored at -70 degrees C prior to their use. All drugs and investigational agents were tested over a range starting from a high concentration at or near the clinical Cmax and decreasing in half-log increments. If the clinical Cmax for an agent had not been determined, the highest concentration tested was 10 microM.
2.3 Cell Culture. All cells were maintained in an incubator at 37 degrees C and 5% CO2 with 95% humidity. The PDC lines were cultured according to standard operating procedures established by the NCI PDMR. All PDCs were thawed and cultured in Matrigel-coated flasks prepared with a working solution of 1X Ham's F-12 nutrient mix, without supplementation (Invitrogen, cat. 11765054), 100 U/mL penicillin-streptomycin (Invitrogen, cat. 15140122), and 2.5% Matrigel (Corning Inc., cat. 354248) for the first three passages. The 857933-349-R-J2-PDC line was cultured in 6C/Colon 1B media, which includes advanced DMEM/F-12 (Thermo Fisher Scientific, cat. 12634028), 10 mM HEPES (Thermo Fisher Scientific, cat. 15630080), 1X GlutaMAX supplement (Thermo Fisher Scientific, cat. 35050061), 0.1 mg/mL primocin (InvivoGen, cat. ant-pm-2), 10% defined fetal bovine serum, heat inactivated (HyClone Laboratories Inc., cat. SH30070.03HI), 50% L-WRN conditioned media (ATCC, cat. CRL-3276), 1.25 mM N-Acetyl-L-cysteine (Sigma-Aldrich, cat. A9165), 10 mM nicotinamide (Sigma-Aldrich, cat. N0636), 1X B-27 supplement (Thermo Fisher Scientific, cat. 17504044), 1X N-2 supplement (Thermo Fisher Scientific, cat. 17502048), 10 microM Y-27632 dihydrochloride (Tocris Bioscience, cat. 1254), and 50 ng/mL human EGF recombinant protein (Thermo Fisher Scientific, cat. PHG0311). The 485176-168-R4-J1-PDC line was cultured in Panc media, which includes all 6C/Colon 1B media components plus 100 ng/mL human FGF-10 (Thermo Fisher Scientific, cat. 100-26), 500 nM SB-431542 (Selleckchem, cat. S1067), and gastrin (Tocris, cat. 3006).
[…]

[1] = curve of first compound, second compound 0.0316 µM
[2] = curve of first compound, second compound 0.1 µM
[3] = curve of first compound, second compound 0.316 µM
[4] = curve of first compound, second compound 1 µM
[5] = curve of first compound, second compound 3.16 µM
[6] = curve of first compound, second compound 10 µM
[7] = second compound 0.0316 µM, first compound 0.0316 µM
[8] = second compound 0.0316 µM, first compound 0.1 µM
[9] = second compound 0.0316 µM, first compound 0.316 µM
[10] = second compound 0.0316 µM, first compound 1 µM
[11] = second compound 0.0316 µM, first compound 3.16 µM
[12] = second compound 0.0316 µM, first compound 10 µM
[13] = second compound 0.1 µM, first compound 0.0316 µM
[14] = second compound 0.1 µM, first compound 0.1 µM
[15] = second compound 0.1 µM, first compound 0.316 µM
[16] = second compound 0.1 µM, first compound 1 µM
[17] = second compound 0.1 µM, first compound 3.16 µM
[18] = second compound 0.1 µM, first compound 10 µM
[19] = second compound 0.316 µM, first compound 0.0316 µM
[20] = second compound 0.316 µM, first compound 0.1 µM
[21] = second compound 0.316 µM, first compound 0.316 µM
[22] = second compound 0.316 µM, first compound 1 µM
[23] = second compound 0.316 µM, first compound 3.16 µM
[24] = second compound 0.316 µM, first compound 10 µM
[25] = second compound 1 µM, first compound 0.0316 µM
[26] = second compound 1 µM, first compound 0.1 µM
[27] = second compound 1 µM, first compound 0.316 µM
[28] = second compound 1 µM, first compound 1 µM
[29] = second compound 1 µM, first compound 3.16 µM
[30] = second compound 1 µM, first compound 10 µM
[31] = second compound 3.16 µM, first compound 0.0316 µM
[32] = second compound 3.16 µM, first compound 0.1 µM
[33] = second compound 3.16 µM, first compound 0.316 µM
[34] = second compound 3.16 µM, first compound 1 µM
[35] = second compound 3.16 µM, first compound 3.16 µM
[36] = second compound 3.16 µM, first compound 10 µM
[37] = second compound 10 µM, first compound 0.0316 µM
[38] = second compound 10 µM, first compound 0.1 µM
[39] = second compound 10 µM, first compound 0.316 µM
[40] = second compound 10 µM, first compound 1 µM
[41] = second compound 10 µM, first compound 3.16 µM
[42] = second compound 10 µM, first compound 10 µM
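Also: spheroids exposed to drugs for seven days.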
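For viability, T/C in this document: 100% = DMSO vehicle control viability.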

Structure (SMILES): COc1ccc([C@@H](O)c2cc(-c3ncnc4cc(N5CCOCC5)ccc34)c(F)cc2Cl)nn1 + Cc1[nH]c2ccc(F)cc2c1-c1nc2c3cccnc3c3ncccc3c2[nH]1
- IC50 [1]: > 10 µM
- IC50 [2]: > 10 µM
- IC50 [3]: > 10 µM
- IC50 [4]: 5.02 µM
- IC50 [5]: 0.424 µM
- IC50 [6]: 0.352 µM
- viability, T/C [7]: 89.6%
- viability, T/C [8]: 77.9%
- viability, T/C [9]: 97.2%
- viability, T/C [10]: 72.6%
- viability, T/C [11]: 72.6%
- viability, T/C [12]: 68.7%
- viability, T/C [13]: 88.3%
- viability, T/C [14]: 79.6%
- viability, T/C [15]: 70.5%
- viability, T/C [16]: 74%
- viability, T/C [17]: 72.7%
- viability, T/C [18]: 65.7%
- viability, T/C [19]: 87.8%
- viability, T/C [20]: 79.4%
- viability, T/C [21]: 96%
- viability, T/C [22]: 80.9%
- viability, T/C [23]: 70.9%
- viability, T/C [24]: 61.2%
- viability, T/C [25]: 61.1%
- viability, T/C [26]: 70.1%
- viability, T/C [27]: 67%
- viability, T/C [28]: 62.2%
- viability, T/C [29]: 50.4%
- viability, T/C [30]: 44.5%
- viability, T/C [31]: 59%
- viability, T/C [32]: 51.7%
- viability, T/C [33]: 51.1%
- viability, T/C [34]: 49.1%
- viability, T/C [35]: 33.3%
- viability, T/C [36]: 24.1%
- viability, T/C [37]: 53.4%
- viability, T/C [38]: 48%
- viability, T/C [39]: 53%
- viability, T/C [40]: 41.5%
- viability, T/C [41]: 29%
- viability, T/C [42]: 25.6%

Structure (SMILES): CC1COCCN1c1cc(C2(O)CC3CCC(C2)O3)c2cnn(-c3ccn[nH]3)c2n1 (stereo not drawn)
- viability, T/C (compound 0.0316 µM): 98% and 89.3% and 74.2%
- viability, T/C (compound 0.1 µM): 74.3% and 88.6% and 73.8%
- viability, T/C (compound 0.316 µM): 65.7% and 71% and 68.6%
- viability, T/C (compound 1 µM): 59.9% and 61.2% and 68.8%
- viability, T/C (compound 3.16 µM): 56.3% and 54.3% and 63.9%
- viability, T/C (compound 10 µM): 41.6% and 47.4% and 45.6%
- IC50 (curve of compound): 3.92 µM and 6.86 µM and 7.56 µM

Structure (SMILES): C=CCn1c(=O)c2cnc(Nc3ccc(N4CCN(C)CC4)cc3)nc2n1-c1cccc(C(C)(C)O)n1 + Cc1cnc(CNC(=O)c2c(=O)c3ccc(N4CCCN(C)CC4)nc3n3c2sc2ccccc23)cn1
- IC50 [1]: > 10 µM
- IC50 [2]: > 10 µM
- IC50 [3]: > 10 µM
- IC50 [4]: > 10 µM
- IC50 [5]: > 10 µM
- IC50 [6]: 8.24 µM
- viability, T/C [7]: 93.4%
- viability, T/C [8]: 70.5%
- viability, T/C [9]: 64.3%
- viability, T/C [10]: 65.9%
- viability, T/C [11]: 69.1%
- viability, T/C [12]: 78%
- viability, T/C [13]: 75.9%
- viability, T/C [14]: 86%
- viability, T/C [15]: 80.2%
- viability, T/C [16]: 72.2%
- viability, T/C [17]: 73.1%
- viability, T/C [18]: 67.8%
- viability, T/C [19]: 89.8%
- viability, T/C [20]: 82.1%
- viability, T/C [21]: 76%
- viability, T/C [22]: 61.3%
- viability, T/C [23]: 66%
- viability, T/C [24]: 61.9%
- viability, T/C [25]: 76.1%
- viability, T/C [26]: 83%
- viability, T/C [27]: 76.5%
- viability, T/C [28]: 67.9%
- viability, T/C [29]: 62%
- viability, T/C [30]: 62.4%
- viability, T/C [31]: 76.5%
- viability, T/C [32]: 71.5%
- viability, T/C [33]: 59.6%
- viability, T/C [34]: 55.4%
- viability, T/C [35]: 52.5%
- viability, T/C [36]: 58%
- viability, T/C [37]: 57.8%
- viability, T/C [38]: 66.1%
- viability, T/C [39]: 65.6%
- viability, T/C [40]: 54.9%
- viability, T/C [41]: 58.6%
- viability, T/C [42]: 48.4%

Structure (SMILES): CC(=O)O[C@H]1C(=O)[C@@]2(C)[C@H]([C@H](OC(=O)c3ccccc3)[C@]3(O)C[C@H](OC(=O)[C@H](O)[C@@H](NC(=O)c4ccccc4)c4ccccc4)C(C)=C1C3(C)C)[C@]1(OC(C)=O)CO[C@@H]1C[C@@H]2O
- viability, T/C (compound 0.0316 µM): 84.1% and 80.2% and 104%
- viability, T/C (compound 0.1 µM): 96.1% and 82.8% and 71.2%
- viability, T/C (compound 0.316 µM): 82.9% and 80.8% and 85.8%
- viability, T/C (compound 1 µM): 87.2% and 95.1% and 88.6%
- viability, T/C (compound 3.16 µM): 99.2% and 101% and 86.8%
- viability, T/C (compound 10 µM): 76.9% and 80.1% and 86.2%
- IC50 (curve of compound): > 10 µM

From PubChem BioAssay AID2060496 (Molecular Pharmacology Branch, DTP, NCI, 2025)
